Reference: ChEMBL document CHEMBL3228023, “Paradoxical effects of N-cyanoalkyl substituents upon the activities of several classes of opioids” (J Med Chem, 1979)
Structures can show the parent of a compound that is named as a salt. Activity calls are given as the source filed them. No cut-off for these calls is given here.

How the values were obtained:
[1] = test system: Mus musculus; test: Antinociceptive activity in sc dosed mouse by Nilsen assay; format: functional
[2] = molecular target: Opioid receptor (Rattus norvegicus, UniProt P33533+P34975+P33535); test: Binding affinity to opiate receptor in rat brain homogenates; format: tissue-based
[3] = Binding affinity to opiate receptor in mouse/rat NG108-15 hybrid cells
[4] = test system: Mus musculus; test: Antinociceptive activity in sc dosed mouse by Eddy-hot plate assay; format: functional
[5] = Acute toxicity in sc dosed mouse; format: organism-based; settings: in vivo
[6] = test system: Mus musculus; test: Ratio of morphine ED50 to compound ED50 for antinociceptive activity in sc dosed mouse by Eddy-hot plate assay; format: functional
[7] = test system: Mus musculus; test: Antinociceptive activity in Swiss-webster mouse at 1.6 umol/kg, sc by tail-flick assay; format: functional
[8] = test system: Mus musculus; test: Antinociceptive activity in Swiss-webster mouse at 1.6 umol/kg, sc by tail-flick assay in presence of 0.08 to 8.5 umol/kg naloxone; format: functional, organism-based
[9] = test system: Mus musculus; test: Antinociceptive activity in sc dosed mouse by Eddy-hot plate assay in presence of naloxone; format: functional, organism-based
[10] = test system: Rhesus monkey; test: Acute toxicity in rhesus monkey assessed as salivation at 0.25 to 2 mg/kg by single-dose suppression test; format: organism-based, Macaca mulatta; design: dose 0.25-2 mg/kg; settings: in vivo
[11] = test system: Rhesus monkey; test: Acute toxicity in rhesus monkey assessed as head tremors, covulsiona, ataxia at 2 mg/kg by single-dose suppression test; format: organism-based, Macaca mulatta; design: dose 2 mg/kg; settings: in vivo
[12] = test system: Rhesus monkey; test: Acute toxicity in rhesus monkey assessed as CNS depression at 0.625 to 5 mg/kg by single-dose suppression test in presence of naloxone; format: organism-based, Macaca mulatta, Central nervous system; design: dose 0.625-5 mg/kg; settings: in vivo
[13] = test system: Rhesus monkey; test: Acute toxicity in rhesus monkey assessed as CNS depression at 0.625 to 5 mg/kg by single-dose suppression test; format: organism-based, Macaca mulatta, Central nervous system; design: dose 0.625-5 mg/kg; settings: in vivo
[14] = test system: Rhesus monkey; test: Narcotic antagonist activity in rhesus monkey at 1 to 2 mg/kg by precipitated withdrawal test; format: organism-based, Macaca mulatta; design: dose 1-2 mg/kg; settings: in vivo
[15] = test system: Rhesus monkey; test: Acute toxicity in rhesus monkey assessed as ataxia and mild stupor at 1 to 2 mg/kg by single-dose suppression test; format: organism-based, Macaca mulatta; design: dose 1-2 mg/kg; settings: in vivo
[16] = test system: Mus musculus; test: Ratio of morphine ED50 to compound ED50 for antinociceptive activity in sc dosed mouse by Nilsen assay; format: functional
[17] = test system: Rhesus monkey; test: Acute toxicity in rhesus monkey assessed as minimal CNS depression at 1.5 to 12 mg/kg by single-dose suppression test; format: organism-based, Macaca mulatta, Central nervous system; design: dose 1.5-12 mg/kg; settings: in vivo
[18] = test system: Mus musculus; test: Antinociceptive activity in mouse at 100 mg/kg, sc by Eddy-hot plate assay; format: functional, organism-based; design: dose 100 mg/kg
[19] = Therapeutic ratio of LD50 for sc dosed mouse to ED50 for antinociceptive activity in sc dosed mouse by Eddy-hot plate assay; settings: in vivo
[20] = test system: Rhesus monkey; test: Physical dependence capacity in rhesus monkey at 0.16 to 2.56 mg/kg by single-dose suppression test; format: ADME, organism-based, Macaca mulatta; design: dose 0.16-2.56 mg/kg; settings: in vivo
[21] = test system: Rhesus monkey; test: Narcotic antagonist activity in rhesus monkey at 0.32 to 1.28 mg/kg by precipitated withdrawal test; format: organism-based, Macaca mulatta; design: dose 0.32-1.28 mg/kg; settings: in vivo
[22] = test system: Rhesus monkey; test: Acute toxicity in rhesus monkey assessed as rigidity at 2.56 mg/kg by single-dose suppression test; format: organism-based, Macaca mulatta; design: dose 2.56 mg/kg; settings: in vivo
[23] = test system: Rhesus monkey; test: Acute toxicity in rhesus monkey assessed as ataxia at 0.32 to 2.56 mg/kg by single-dose suppression test; format: organism-based, Macaca mulatta; design: dose 0.32-2.56 mg/kg; settings: in vivo
[24] = test system: Rhesus monkey; test: Acute toxicity in rhesus monkey assessed as tremors at 0.64 to 2.56 mg/kg by single-dose suppression test; format: organism-based, Macaca mulatta; design: dose 0.64-2.56 mg/kg; settings: in vivo
[25] = test system: Rhesus monkey; test: Acute toxicity in rhesus monkey assessed as salivation at 0.005 to 0.02 mg/kg by single-dose suppression test; format: organism-based, Macaca mulatta; design: dose 0.005-0.02 mg/kg; settings: in vivo
[26] = test system: Rhesus monkey; test: Acute toxicity in rhesus monkey assessed as exacerbation of withdrawal at 0.005 to 0.04 mg/kg by single-dose suppression test; format: organism-based, Macaca mulatta; design: dose 0.005-0.04 mg/kg; settings: in vivo
[27] = test system: Rhesus monkey; test: Acute toxicity in rhesus monkey assessed as tremors at 36 mg/kg by single-dose suppression test; format: organism-based, Macaca mulatta; design: dose 36 mg/kg; settings: in vivo
[28] = test system: Rhesus monkey; test: Narcotic antagonist activity in rhesus monkey […]; format: organism-based, Macaca mulatta; settings: in vivo
[29] = test system: Rhesus monkey; test: Acute toxicity in rhesus monkey assessed as minimal CNS depression at 1.5 to 36 mg/kg by single-dose suppression test; format: organism-based, Macaca mulatta, Central nervous system; design: dose 1.5-36 mg/kg; settings: in vivo
[30] = test system: Rhesus monkey; test: Acute toxicity in rhesus monkey assessed as withdrawal signs at 24 to 96 mg/kg by precipitated withdrawal test; format: organism-based, Macaca mulatta; design: dose 24-96 mg/kg; settings: in vivo
[31] = test system: Rhesus monkey; test: Acute toxicity in rhesus monkey assessed as withdrawal signs at 96 mg/kg by single-dose suppression test; format: organism-based, Macaca mulatta; design: dose 96 mg/kg; settings: in vivo
[32] = test system: Mus musculus; test: Antinociceptive activity in mouse at 100 mg/kg, sc by Nilsen assay; format: functional, organism-based; design: dose 100 mg/kg
[33] = test system: Rhesus monkey; test: Acute toxicity in rhesus monkey at 10 to 40 mg/kg by single-dose suppression test; format: organism-based, Macaca mulatta; design: dose 10-40 mg/kg; settings: in vivo
[34] = species on record: Mus musculus
[35] = test system: Rhesus monkey; test: Physical dependence capacity in rhesus monkey at 12 mg/kg by single-dose suppression test; format: ADME, organism-based, Macaca mulatta; design: dose 12 mg/kg; settings: in vivo
[36] = test system: Rhesus monkey; test: Acute toxicity in rhesus monkey at 3 to 12 mg/kg by single-dose suppression test; format: organism-based, Macaca mulatta; design: dose 3-12 mg/kg; settings: in vivo
[37] = Mus musculus, sc, read-out: ED50

## CN1CC[C@]23CCCC[C@H]2[C@H]1Cc1ccc(O)cc13.O=C(O)C(O)C(O)C(=O)O
[1]; [37]
  ED50: 0.54 µmol/kg
[2]
  EC50: 0.7 µM
[3]
  EC50: 0.2 µM
[4]; [37]
  ED50: 0.49 µmol/kg

## CN1CC[C@]23c4c5ccc(O)c4O[C@H]2[C@@H](O)C=C[C@H]3[C@H]1C5
[1]; [37]
  ED50: 4.1 µmol/kg
[3]
  EC50: 1.5 µM
[4]; [37]
  ED50: 3.3 µmol/kg

## Cl.N#CCCN1CC[C@]23CCCCC2C1Cc1ccc(O)cc13.O (stereo partly specified)
[5]
  LD50: 534 mg/kg
[6]
  Ratio ED50: 50
[7]
  Activity: 100%

## N#CCCN1CC[C@]23CCCCC2C1Cc1ccc(O)cc13 (stereo partly specified)
[8]
  Activity: inactive
[9]
  Activity: inactive

## C[C@H]1C2Cc3ccc(O)cc3C1(C)CCN2CCC#N (mixture of isomers)
[10]
  Activity: Toxic
[11]
  Activity: Toxic
[1]
  ED50: 0.31 µmol/kg
[2]
  EC50: 3 µM
[4]
  ED50: 0.26 µmol/kg

## C[C@H]1C2Cc3ccc(O)cc3C1(C)CCN2CC#N (mixture of isomers)
[12]
  Activity: Toxic
[1]; [37]
  ED50: 39.1 µmol/kg
[2]
  EC50: 20 µM
[13]
  Activity: Toxic
[4]; [37]
  ED50: 22.2 µmol/kg

## C[C@H]1C2Cc3ccc(O)cc3C1(C)CCN2CCCC#N (mixture of isomers)
[14]
  Activity: Toxic
[1]; [37]
  ED50: 1.5 µmol/kg
[2]
  EC50: 4 µM
[15]
  Activity: Toxic
[4]; [37]
  ED50: 2.4 µmol/kg

## Br.C[C@H]1C2Cc3ccc(O)cc3C1(C)CCN2CCC#N (mixture of isomers)
[6]
  Ratio ED50: 12
[16]
  Ratio ED50: 12

## C[C@H]1C2Cc3ccc(O)cc3C1(C)CCN2CCC#N (single isomer, unassigned; (+)) [listing 1 of 2 here]
[17]
  Activity: Toxic

## C[C@H]1C2Cc3ccc(O)cc3C1(C)CCN2CCC#N (single isomer, unassigned; (+)) [listing 2 of 2 here]
[18]
  Activity: inactive

## N#CCCN1CC[C@]23CCCCC2C1Cc1ccc(O)cc13 (single isomer, unassigned; (+))
[18]
  Activity: inactive

## C[C@H]1C2Cc3ccc(O)cc3C1(C)CCN2CCC#N (single isomer, unassigned; (-))
[19]
  selectivity ratio: 13000
[20]
  Activity: Non-toxic
[21]
  Activity: Toxic
[1]
  ED50: 0.03 µmol/kg
[2]
  EC50: 3 µM
[3]
  EC50: 0.08 µM
[22]
  Activity: Toxic
[23]
  Activity: Toxic
[24]
  Activity: Toxic
[4]
  ED50: 0.11 µmol/kg

## Br.C[C@H]1C2Cc3ccc(O)cc3C1(C)CCN2CCC#N (single isomer, unassigned; (-))
[5]
  LD50: 489 mg/kg

## N#CCCN1CC[C@]23CCCCC2C1Cc1ccc(O)cc13 (single isomer, unassigned; (-))
[25]
  Activity: Toxic
[26]
  Activity: Toxic
[19]
  selectivity ratio: 23000
[1]; [37]
  ED50: 0.14 µmol/kg
[2]
  EC50: 1.5 µM
[3]
  EC50: 0.015 µM
[4]; [37]
  ED50: 0.07 µmol/kg

## N#CCN1CC[C@]23CCCCC2C1Cc1ccc(O)cc13 (single isomer, unassigned; (-))
[1]; [37]
  ED50: 13.2 µmol/kg
[2]
  EC50: 7 µM
[4]; [37]
  ED50: 5.3 µmol/kg

## N#CCCN1CC[C@]23c4c5ccc(O)c4O[C@H]2[C@@H](O)C=CC3C1C5 (single isomer, unassigned; (-))
[27]
  Activity: Toxic
[28]
  Activity: Toxic
[1]; [37]
  ED50: 33 µmol/kg
[2]
  EC50: 20 µM
[3]
  EC50: 1 µM
[29]
  Activity: Toxic
[4]; [37]
  ED50: 8.3 µmol/kg

## COc1ccc2c3c1O[C@H]1[C@@H](O)C=CC4C(C2)N(CCC#N)CC[C@@]341 (single isomer, unassigned; (-))
[30]
  Activity: Toxic
[2]
  EC50: 700 µM
[31]
  Activity: Toxic

## COc1ccc2c3c1O[C@H]1C(=O)CC[C@@]4(O)C(C2)N(CCC#N)CC[C@]314 (single isomer, unassigned; (-))
[32]
  Activity: inactive
[33]
  Activity: Non-toxic
[2]
  EC50: 60 µM
[34]
  ED50: inactive

## Br.CC1C2Cc3ccc(O)cc3C1(C)CCN2C (single isomer, unassigned; (-))
[1]; [37]
  ED50: 1.5 µmol/kg
[2]
  EC50: 4 µM
[3]
  EC50: 0.4 µM
[4]; [37]
  ED50: 2 µmol/kg

## COc1ccc2c3c1O[C@H]1[C@@H](O)C=C[C@H]4[C@@H](C2)N(C)CC[C@@]341.COc1ccc2c3c1O[C@H]1[C@@H](O)C=C[C@H]4[C@@H](C2)N(C)CC[C@@]341.O.O=P(O)(O)O.O=P(O)(O)O [CODEINE PHOSPHATE]
[35]
  Activity: Toxic
[1]; [37]
  ED50: 20.4 µmol/kg
[36]
  Activity: Toxic
[4]; [37]
  ED50: 14.6 µmol/kg

## CN1CC[C@]23c4c5ccc(O)c4O[C@H]2C(=O)CC[C@@]3(O)[C@H]1C5 [OXYMORPHONE HYDROCHLORIDE]
[4]; [37]
  ED50: 0.27 µmol/kg
